Reference: publication PMC12391391, “The balance between B55α and Greatwall expression levels predicts sensitivity to Greatwall inhibition in cancer cells” (Nature Communications, 2025)

Columns and labels:
Experiment in all cases: biochemical
CDK1/cyclinB = CDK1/cyclinB (Homo sapiens, UniProt P06493); parameters: CDK1/cyclin B and off-target kinase inhibition assay
MAP3K9 = MAP3K9 (Homo sapiens, UniProt P80192); parameters: LanthaScreen kinase activity assay (Thermo Fisher), dose-dependent inhibition by C-604; details: read-out: IC50 (C-604)
Sequence of MAP3K9 (P80192 whole entry): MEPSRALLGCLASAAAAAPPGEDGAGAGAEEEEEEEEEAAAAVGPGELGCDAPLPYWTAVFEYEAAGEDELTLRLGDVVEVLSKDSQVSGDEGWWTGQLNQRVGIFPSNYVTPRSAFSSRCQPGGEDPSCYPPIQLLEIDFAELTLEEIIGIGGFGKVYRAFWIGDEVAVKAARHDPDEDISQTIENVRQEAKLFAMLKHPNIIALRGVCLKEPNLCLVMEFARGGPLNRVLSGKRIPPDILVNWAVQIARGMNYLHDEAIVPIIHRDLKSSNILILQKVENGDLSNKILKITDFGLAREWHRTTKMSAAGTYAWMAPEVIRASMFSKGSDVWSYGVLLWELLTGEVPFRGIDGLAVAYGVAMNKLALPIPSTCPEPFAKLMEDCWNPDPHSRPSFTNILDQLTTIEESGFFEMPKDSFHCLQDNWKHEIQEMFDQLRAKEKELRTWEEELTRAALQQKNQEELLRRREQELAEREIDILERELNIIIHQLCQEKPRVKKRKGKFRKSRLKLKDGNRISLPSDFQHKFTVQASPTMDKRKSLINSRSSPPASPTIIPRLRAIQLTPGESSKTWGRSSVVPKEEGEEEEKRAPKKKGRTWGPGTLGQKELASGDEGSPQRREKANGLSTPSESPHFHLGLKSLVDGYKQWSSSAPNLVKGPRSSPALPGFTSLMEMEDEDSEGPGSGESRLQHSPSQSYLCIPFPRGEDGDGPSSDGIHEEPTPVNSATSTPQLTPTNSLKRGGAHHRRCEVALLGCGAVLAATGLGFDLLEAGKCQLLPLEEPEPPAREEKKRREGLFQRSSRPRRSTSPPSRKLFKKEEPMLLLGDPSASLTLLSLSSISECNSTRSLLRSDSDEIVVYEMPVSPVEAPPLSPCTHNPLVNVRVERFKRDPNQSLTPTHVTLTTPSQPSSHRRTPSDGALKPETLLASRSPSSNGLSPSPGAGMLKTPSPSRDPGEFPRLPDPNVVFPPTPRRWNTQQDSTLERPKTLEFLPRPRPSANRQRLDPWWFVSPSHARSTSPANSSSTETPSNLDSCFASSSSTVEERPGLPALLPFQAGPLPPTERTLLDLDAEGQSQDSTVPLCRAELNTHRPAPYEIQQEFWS
Procedure: (§1) To identify potential C-604 off-targets, we utilised a commercially available off-target screening service (Thermo Fisher Scientific) to assess the impact of C-604 on the in vitro activity of 100 human kinases (Supplementary Fig. 8a). Out of 100 tested targets, C-604 (1 µM) inhibited GWL (inhibition 95%) and an additional 10 kinases (inhibition ≥ 80%). […] The in vitro off-target effects of compound C-604 were determined by assessing its inhibitory potential in a panel of 100 human kinases using the LanthaScreen Kinase Activity Assay (Thermo Fisher Scientific).

NUAK1 = molecular target: T1, NUAK1 (Homo sapiens, UniProt O60285); parameters: LanthaScreen kinase activity assay (Thermo Fisher), dose-dependent inhibition by C-604; details: read-out: IC50 (C-604)
T1 sequence (O60285 1-661): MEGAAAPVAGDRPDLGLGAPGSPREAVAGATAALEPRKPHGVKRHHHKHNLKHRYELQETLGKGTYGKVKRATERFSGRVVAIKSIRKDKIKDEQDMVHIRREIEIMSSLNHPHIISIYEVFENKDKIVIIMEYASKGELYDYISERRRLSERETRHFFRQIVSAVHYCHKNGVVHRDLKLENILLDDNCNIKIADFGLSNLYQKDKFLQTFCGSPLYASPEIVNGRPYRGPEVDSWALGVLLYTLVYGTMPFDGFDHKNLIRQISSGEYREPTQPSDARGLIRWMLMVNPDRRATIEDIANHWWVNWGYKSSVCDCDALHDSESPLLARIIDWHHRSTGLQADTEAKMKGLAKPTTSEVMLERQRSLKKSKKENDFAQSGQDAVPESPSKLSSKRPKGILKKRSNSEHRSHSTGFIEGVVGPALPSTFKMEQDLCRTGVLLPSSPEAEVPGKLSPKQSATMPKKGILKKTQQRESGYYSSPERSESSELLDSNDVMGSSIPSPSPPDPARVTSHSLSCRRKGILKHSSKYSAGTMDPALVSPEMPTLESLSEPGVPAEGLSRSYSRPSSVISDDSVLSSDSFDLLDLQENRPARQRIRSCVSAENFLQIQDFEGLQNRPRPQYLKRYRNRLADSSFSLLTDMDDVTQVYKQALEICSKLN
Procedure: as §1

PRKD2 = molecular target: T2, PRKD2 (Homo sapiens, UniProt Q9BZL6); parameters: LanthaScreen kinase activity assay (Thermo Fisher), dose-dependent inhibition by C-604; details: read-out: IC50 (C-604)
T2 sequence (Q9BZL6 1-878): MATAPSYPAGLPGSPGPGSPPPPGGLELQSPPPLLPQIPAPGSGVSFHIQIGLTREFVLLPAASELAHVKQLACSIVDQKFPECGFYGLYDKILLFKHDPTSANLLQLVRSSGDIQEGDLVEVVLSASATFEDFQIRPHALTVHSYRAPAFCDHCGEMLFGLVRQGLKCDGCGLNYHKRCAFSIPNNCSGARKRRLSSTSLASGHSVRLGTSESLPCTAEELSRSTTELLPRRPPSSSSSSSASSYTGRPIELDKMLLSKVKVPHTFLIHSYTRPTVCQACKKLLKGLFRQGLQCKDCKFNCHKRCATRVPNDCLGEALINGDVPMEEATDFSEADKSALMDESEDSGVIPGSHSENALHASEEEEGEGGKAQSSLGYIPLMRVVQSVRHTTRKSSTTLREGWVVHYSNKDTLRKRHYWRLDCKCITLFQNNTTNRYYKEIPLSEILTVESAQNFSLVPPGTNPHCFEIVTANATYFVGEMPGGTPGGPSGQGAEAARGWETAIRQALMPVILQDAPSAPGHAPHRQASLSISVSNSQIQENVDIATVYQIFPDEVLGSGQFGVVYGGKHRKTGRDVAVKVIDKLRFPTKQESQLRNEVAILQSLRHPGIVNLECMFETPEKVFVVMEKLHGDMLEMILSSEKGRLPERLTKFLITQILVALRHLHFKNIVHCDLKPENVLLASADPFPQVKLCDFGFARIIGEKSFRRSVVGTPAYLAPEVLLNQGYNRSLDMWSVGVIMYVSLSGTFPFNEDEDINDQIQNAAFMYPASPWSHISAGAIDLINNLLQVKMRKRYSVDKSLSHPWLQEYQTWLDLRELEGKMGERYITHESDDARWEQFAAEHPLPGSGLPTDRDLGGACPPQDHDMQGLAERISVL
Procedure: as §1

Sequence of CDK1/cyclinB (P06493 whole entry): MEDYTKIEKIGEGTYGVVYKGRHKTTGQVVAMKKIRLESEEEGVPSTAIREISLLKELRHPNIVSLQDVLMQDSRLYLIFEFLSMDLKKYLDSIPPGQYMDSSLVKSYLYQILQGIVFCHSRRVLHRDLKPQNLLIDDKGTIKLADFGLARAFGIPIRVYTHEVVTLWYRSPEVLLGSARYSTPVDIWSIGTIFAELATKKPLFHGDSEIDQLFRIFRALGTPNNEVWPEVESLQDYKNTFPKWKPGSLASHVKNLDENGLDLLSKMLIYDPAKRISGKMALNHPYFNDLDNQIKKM
Sequence of CDK1/cyclinB (P14635 whole entry partner): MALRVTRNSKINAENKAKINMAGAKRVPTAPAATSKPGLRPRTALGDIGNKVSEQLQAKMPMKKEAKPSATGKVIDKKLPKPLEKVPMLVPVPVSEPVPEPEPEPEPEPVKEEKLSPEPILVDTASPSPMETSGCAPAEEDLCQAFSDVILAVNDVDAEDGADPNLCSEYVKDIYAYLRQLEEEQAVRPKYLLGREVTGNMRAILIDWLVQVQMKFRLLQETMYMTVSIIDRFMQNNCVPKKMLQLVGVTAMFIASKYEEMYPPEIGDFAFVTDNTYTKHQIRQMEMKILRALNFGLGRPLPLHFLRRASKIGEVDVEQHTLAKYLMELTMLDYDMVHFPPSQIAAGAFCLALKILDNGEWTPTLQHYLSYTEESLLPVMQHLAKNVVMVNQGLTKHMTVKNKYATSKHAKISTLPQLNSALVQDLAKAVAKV

CNC(=O)c1c[nH]c2ncc(-c3ccc(OCCN4CCC(c5ccccc5)C4)cc3)nc12 (racemic) [compound 21, C-604]
IC50 (CDK1/cyclinB): > 30 µM | IC50 (MAP3K9): 29.3 nM | IC50 (NUAK1): 10.1 nM | IC50 (PRKD2): 373 nM
